Laboratory results taken from patent publication US6979686B1, “Substituted pyrazoles as p38 kinase inhibitors” (Pharmacia Corporation, priority 2001, dated 2005).
pIC50: −log10 of the molar value. Read-outs that look alike come from different tables or passages of the source. Blank lines part the entries; values can stand above or below the compound they belong to.

Biological target: T1, human p38 kinase alpha (Homo sapiens, UniProt Q16539)
T1 construct: GST (N, cleaved yes); made in house; host or cells: E. coli DH10B
T1 sequence (Q16539 whole entry): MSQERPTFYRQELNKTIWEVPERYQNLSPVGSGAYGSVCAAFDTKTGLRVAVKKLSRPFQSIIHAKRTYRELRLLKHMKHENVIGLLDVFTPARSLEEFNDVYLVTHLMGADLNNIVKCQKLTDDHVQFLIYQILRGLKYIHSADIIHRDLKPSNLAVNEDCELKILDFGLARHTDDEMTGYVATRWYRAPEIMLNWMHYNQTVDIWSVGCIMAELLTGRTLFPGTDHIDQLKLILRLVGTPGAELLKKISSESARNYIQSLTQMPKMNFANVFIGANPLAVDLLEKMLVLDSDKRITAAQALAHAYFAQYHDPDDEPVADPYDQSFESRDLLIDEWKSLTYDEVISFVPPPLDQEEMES
Experiment: p38 kinase in vitro assay, phosphorylation of biotinylated PHAS-I with 32P-ATP
Assay type: biochemical
Settings: for inhibition at 1 µM: read-out: P38 alpha kinase % inhib @ conc.

[1] = in vitro P38-alpha kinase, read-out: P38 alpha kinase IC50
[2] = in vitro P38-alpha kinase inhibition, read-out: P38 alpha kinase IC50
[3] = Table 8, 1% DMSO, read-out: p38α Kinase Assay IC50

pIC50 [1]: 5.71
Compound: O=S(=O)(c1ccccc1)c1ccc(S(=O)(=O)N2CCC(c3[nH]nc(-c4ccc(F)cc4)c3-c3ccncc3)CC2)s1 [Example B-1441]

P38 alpha kinase IC50, uM or % inhib @ conc. (uM): % inhib (@ 10.0 uM): 80.0% @
Compound: CCCCCCOc1ccc(NC(=O)Cn2nc(-c3ccc(F)cc3)c(-c3ccncc3)c2C)cc1 [Example B-2436]

pIC50 [1]: 5.77
Compound: O=S(=O)(c1ccc(-c2ccccn2)s1)N1CCC(c2[nH]nc(-c3ccc(F)cc3)c2-c2ccncc2)CC1 [Example B-1439]

pIC50 [1]: 6.18
Compound: Cc1c(-c2ccncc2)c(-c2ccc(F)cc2)nn1CC(=O)NCCc1csc2ccccc12 [Example B-2308]

pIC50 [1]: 5.85
Compound: O=C(c1cc(F)cc(F)c1)N1CCC(c2[nH]nc(-c3ccc(F)cc3)c2-c2ccncc2)CC1 [Example B-1415]

pIC50 [1]: 7.15
Compound: Cc1c(-c2ccncc2)c(-c2ccc(F)cc2)nn1CC(=O)NCCCCc1ccccc1 [Example B-2300]

P38 alpha kinase % inhib @ conc. (@ 10.0 uM): 75.0% @
Compound: CCCCC(C)NC(=O)Cn1nc(-c2ccc(F)cc2)c(-c2ccncc2)c1C (centres unmarked) [Example B-2319]

P38 alpha kinase IC50, uM or % inhib @ conc. (uM): % inhib (@ 10.0 uM): 86.0% @
Compound: Cc1c(-c2ccncc2)c(-c2ccc(F)cc2)nn1CC(=O)Nc1ccccc1C(F)(F)F [Example B-2419]

pIC50 [1]: 5.93
Compound: O=S(=O)(c1cccc(F)c1)N1CCC(c2[nH]nc(-c3ccc(F)cc3)c2-c2ccncc2)CC1 [Example B-1464]

P38 alpha kinase % inhib @ conc. (@ 10.0 uM): 70.0% @
Compound: Cc1c(-c2ccncc2)c(-c2ccc(F)cc2)nn1CC(=O)NC1CCN(Cc2ccccc2)CC1 [Example B-2332]

pIC50 [1]: 6.30
Compound: COc1ccc(C)c(S(=O)(=O)N2CCC(c3[nH]nc(-c4ccc(F)cc4)c3-c3ccncc3)CC2)c1 [Example B-1447]

pIC50 [1]: 5.86
Compound: O=C(c1ccc(C(F)(F)F)cc1F)N1CCC(c2[nH]nc(-c3ccc(F)cc3)c2-c2ccncc2)CC1 [Example B-1406]

pIC50 [1]: 5.79
Compound: O=S(=O)(c1ccc(Cl)cc1Cl)N1CCC(c2[nH]nc(-c3ccc(F)cc3)c2-c2ccncc2)CC1 [Example B-1449]

P38 alpha kinase % inhib @ conc. (@ 10.0 uM): 81.0% @
Compound: Cc1c(-c2ccncc2)c(-c2ccc(F)cc2)nn1CC(=O)NC1CCC1 [Example B-2330]

P38 alpha kinase IC50, uM or % inhib @ conc. (uM): % inhib (@ 10.0 uM): 87.0% @
Compound: Cc1c(-c2ccncc2)c(-c2ccc(F)cc2)nn1CC(=O)Nc1ccc(C2CCCCC2)cc1 [Example B-2427]

pIC50 [1]: 6.77
Compound: O=C(c1cccc(Br)c1)N1CCC(c2[nH]nc(-c3ccc(F)cc3)c2-c2ccncc2)CC1 [Example B-1365]

pIC50 [1]: 7.80
Compound: O=C(c1ccncc1)N1CCC(c2[nH]nc(-c3ccc(F)cc3)c2-c2ccncc2)CC1 [Example B-1373]

pIC50 [1]: 5.53
Compound: CCSCCNC(=O)Cn1nc(-c2ccc(F)cc2)c(-c2ccncc2)c1C [Example B-2312]

P38 alpha kinase % inhib @ conc. (@ 10.0 uM): 70.0% @
Compound: Cc1c(-c2ccncc2)c(-c2ccc(F)cc2)nn1CC(=O)N1CCOCC1 [Example B-2366]

P38 alpha kinase % inhib @ conc. (@ 10.0 uM): 69.0% @
Compound: Cc1c(-c2ccncc2)c(-c2ccc(F)cc2)nn1CC(=O)NC1Cc2ccccc2C1 [Example B-2321]

The next lines start with the compound.

Compound: CCc1ccc(S(=O)(=O)NCCc2[nH]nc(-c3ccc(F)cc3)c2-c2ccncc2)cc1 [Example B-1088]
pIC50 [2]: 6.14

Compound: O=C(NCCc1[nH]nc(-c2ccc(F)cc2)c1-c1ccncc1)c1ccc(C(F)(F)F)cc1F [Example B-1136]
pIC50 [2]: 5.93

Compound: COCCNC(=O)NCCCc1[nH]nc(-c2ccc(F)cc2)c1-c1ccncc1 [Example B-1311]
pIC50 [1]: 7.30

Compound: O=S(=O)(NCCc1[nH]nc(-c2ccc(F)cc2)c1-c1ccncc1)c1ccc(F)cc1Cl [Example B-1077]
pIC50 [2]: > 7.00

Compound: C=CCNC(=O)NC(Cc1ccccc1)c1[nH]nc(-c2ccc(F)cc2)c1-c1ccncc1 (centres unmarked) [Example B-0779]
pIC50 [2]: 6.30

Compound: C[C@@H](NS(=O)(=O)c1cccc(Cl)c1Cl)c1[nH]nc(-c2ccc(F)cc2)c1-c1ccncc1 [Example B-0445]
pIC50 [2]: > 7.00

Compound: COC(=O)N1CCN(c2[nH]nc(-c3ccc(Cl)cc3)c2-c2ccncc2)CC1 [Example A-319, methyl 4-[5-(4-chlorophenyl)-4-(4-pyridinyl)-1H-pyrazol-3-yl]-1-piperazinecarboxylate, monohydrate]
pIC50 [3]: 5.22

Compound: CC(NS(=O)(=O)c1ccc2ccccc2c1)c1[nH]nc(-c2ccc(F)cc2)c1-c1ccncc1 (centres unmarked) [Example B-0652]
pIC50 [2]: 6.72

Compound: Cc1ccc(S(C)(=O)=O)cc1S(=O)(=O)NCCc1[nH]nc(-c2ccc(F)cc2)c1-c1ccncc1 [Example B-1119]
pIC50 [2]: 6.46

Compound: O=S(=O)(NCCc1[nH]nc(-c2ccc(F)cc2)c1-c1ccncc1)c1cc(S(=O)(=O)c2ccccc2)cs1 [Example B-1112]
pIC50 [2]: 6.24

Compound: CC(C)S(=O)(=O)NC(Cc1ccccc1)c1[nH]nc(-c2ccc(F)cc2)c1-c1ccncc1 (centres unmarked) [Example B-0709]
pIC50 [2]: 6.08

Compound: O=C(NCCCc1[nH]nc(-c2ccc(F)cc2)c1-c1ccncc1)c1cccc(F)c1F [Example B-1347]
pIC50 [1]: 7.68

Compound: O=S(=O)(NCCCc1[nH]nc(-c2ccc(F)cc2)c1-c1ccncc1)c1ccc(-c2ccccc2)cc1 [Example B-1286]
pIC50 [1]: 6.82

Compound: CN(C)S(=O)(=O)NCCCc1[nH]nc(-c2ccc(F)cc2)c1-c1ccncc1 [Example B-1292]
pIC50 [1]: 8.00

Compound: O=[N+]([O-])c1ccccc1CS(=O)(=O)NCCc1[nH]nc(-c2ccc(F)cc2)c1-c1ccncc1 [Example B-1070]
pIC50 [2]: > 7.00

Compound: CC(C)c1ccc(S(=O)(=O)NC(C)c2[nH]nc(-c3ccc(F)cc3)c2-c2ccncc2)cc1 (centres unmarked) [Example B-0623]
pIC50 [2]: 6.92

Compound: O=C(NCc1[nH]nc(-c2ccc(F)cc2)c1-c1ccncc1)C(c1ccccc1)c1ccccc1 [Example B-0032]
inhibition at 1 µM (@ 1.0 uM): 94%

Compound: NC(=O)NCCCc1[nH]nc(-c2ccc(F)cc2)c1-c1ccncc1 [Example B-1207]
P38 alpha kinase % inhib @ conc. (@ 1.0 uM): 90.0% @

Compound: O=C(NCCc1[nH]nc(-c2ccc(F)cc2)c1-c1ccncc1)c1cccc2ccccc12 [Example B-1128]
pIC50 [2]: 5.59

Compound: CC(NC(=O)c1ccccc1Cl)c1[nH]nc(-c2ccc(F)cc2)c1-c1ccncc1 (centres unmarked) [Example B-0691]
pIC50 [2]: 6.80

Compound: O=C(NCCCc1[nH]nc(-c2ccc(F)cc2)c1-c1ccncc1)Nc1ccc(F)cc1 [Example B-1211]
P38 alpha kinase % inhib @ conc. (@ 1.0 uM): 88.0% @

Compound: CC(Oc1ccccc1)C(=O)NCCc1[nH]nc(-c2ccc(F)cc2)c1-c1ccncc1 (centres unmarked) [Example B-1009]
P38 alpha kinase % inhib @ conc. (uM) (@ 1.0 uM): 80.0% @

Compound: Cc1cccc(S(=O)(=O)NC(C)c2[nH]nc(-c3ccc(F)cc3)c2-c2ccncc2)c1 (centres unmarked) [Example B-0638]
pIC50 [2]: 6.60

Compound: CC(C)c1cc(C(C)C)c(C(=O)NCCc2[nH]nc(-c3ccc(F)cc3)c2-c2ccncc2)c(C(C)C)c1 [Example B-1125]
pIC50 [2]: 6.25

Compound: CC1(C)C2CCC1(S(=O)(=O)NCCc1[nH]nc(-c3ccc(F)cc3)c1-c1ccncc1)C(=O)C2 (centres unmarked) [Example B-1100]
pIC50 [2]: 6.66

Compound: O=C(NCCc1[nH]nc(-c2ccc(F)cc2)c1-c1ccncc1)c1cccc(F)c1F [Example B-1146]
pIC50 [2]: 6.33

Compound: NS(=O)(=O)c1ccc(CCNC(=O)NCCCc2[nH]nc(-c3ccc(F)cc3)c2-c2ccncc2)cc1 [Example B-1307]
pIC50 [1]: 8.05

Compound: CC(C)OC(=O)NCCc1[nH]nc(-c2ccc(F)cc2)c1-c1ccncc1 [Example B-1057]
P38 alpha kinase % inhib @ conc. (uM) (@ 1.0 uM): 85.0% @

Compound: CCOC(=O)CCc1[nH]nc(-c2ccc(Cl)cc2)c1-c1ccncc1 [Example A-53]
pIC50 (activated human p38 kinase alpha, PHAS-I substrate, 50 μM unlabeled ATP, read-out: p38 kinase IC50): 6.05

Compound: O=C(NCCCc1[nH]nc(-c2ccc(F)cc2)c1-c1ccncc1)N1CCCC1 [Example B-1209]
P38 alpha kinase % inhib @ conc. (@ 1.0 uM): 86.0% @

Compound: C[C@@H](NS(=O)(=O)c1cc(Cl)cc(Cl)c1)c1[nH]nc(-c2ccc(F)cc2)c1-c1ccncc1 [Example B-0464]
pIC50 [2]: > 7.00

Compound: O=C(NCc1[nH]nc(-c2ccc(F)cc2)c1-c1ccncc1)c1ccc([N+](=O)[O-])cc1 [Example B-0022]
inhibition at 1 µM (@ 1.0 uM): 69%

Compound: O=C(NCCCc1[nH]nc(-c2ccc(F)cc2)c1-c1ccncc1)Nc1ccccc1F [Example B-1215]
P38 alpha kinase % inhib @ conc. (@ 1.0 uM): 86.0% @

Compound: Cc1cc(C)c(S(=O)(=O)NC(C)c2[nH]nc(-c3ccc(F)cc3)c2-c2ccncc2)c(C)c1 (centres unmarked) [Example B-0616]
pIC50 [2]: 6.42

Compound: Cc1ccc(S(=O)(=O)NC(Cc2ccccc2)C(=O)NC(Cc2ccccc2)c2[nH]nc(-c3ccc(F)cc3)c2-c2ccncc2)cc1 (centres unmarked) [Example B-0827]
pIC50 [2]: 4.81

Compound: O=C(NCCc1[nH]nc(-c2ccc(F)cc2)c1-c1ccncc1)c1ccc(F)cc1F [Example B-1152]
pIC50 [2]: 6.14

Compound: O=C(NCCCc1[nH]nc(-c2ccc(F)cc2)c1-c1ccncc1)c1c(Cl)cccc1Cl [Example B-1348]
pIC50 [1]: 8.05

Compound: CC(NS(=O)(=O)c1cccc(Br)c1)c1[nH]nc(-c2ccc(F)cc2)c1-c1ccncc1 (centres unmarked) [Example B-0632]
pIC50 [2]: > 7.00

Compound: CS(=O)(=O)c1ccccc1S(=O)(=O)NCCCc1[nH]nc(-c2ccc(F)cc2)c1-c1ccncc1 [Example B-1294]
pIC50 [1]: 7.89

Compound: CC(NS(=O)(=O)c1ccc(F)cc1Cl)c1[nH]nc(-c2ccc(F)cc2)c1-c1ccncc1 (centres unmarked) [Example B-0626]
pIC50 [2]: > 7.00

Compound: CS(=O)(=O)NCCCc1[nH]nc(-c2ccc(F)cc2)c1-c1ccncc1 [Example B-1201]
P38 alpha kinase % inhib @ conc. (@ 1.0 uM): 84.0% @

Compound: CC(NS(=O)(=O)Cc1ccccc1)c1[nH]nc(-c2ccc(F)cc2)c1-c1ccncc1 (centres unmarked) [Example B-0566]
pIC50 [2]: > 7.00

Compound: Cc1cccc(Cl)c1S(=O)(=O)NCCCc1[nH]nc(-c2ccc(F)cc2)c1-c1ccncc1 [Example B-1272]
pIC50 [1]: 7.85

Compound: O=C(O)c1n[nH]c(-c2ccc(F)cc2)c1-c1ccncc1 [A-313, Step 1, 5-(4-fluorophenyl)-4-(4pyridinyl)-1H-pyrazole-3-carboxylic acid, monohydrate]
pIC50 [3]: 5.87

Compound: CC(=O)OC(C)C(=O)NC(C)c1[nH]nc(-c2ccc(F)cc2)c1-c1ccncc1 (centres unmarked) [Example B-0542]
pIC50 [2]: 5.81

Compound: CNC(=O)CCC(NC(=O)c1ccc(F)cc1)c1[nH]nc(-c2ccc(F)cc2)c1-c1ccncc1 (centres unmarked) [Example B-0862]
pIC50 [2]: 5.67

Compound: CCCCOc1ccc(C(=O)NCc2[nH]nc(-c3ccc(F)cc3)c2-c2ccncc2)cc1 [Example B-0041]
inhibition at 1 µM (@ 1.0 uM): 65%

Compound: O=C(NC(Cc1ccccc1)c1[nH]nc(-c2ccc(F)cc2)c1-c1ccncc1)c1ccccc1I (centres unmarked) [Example B-0798]
pIC50 [2]: 5.76
